The results in this text go back to PubChem BioAssay (NCI).

Some test systems named below: DU-145 prostate; SW-620 colon; MALME-3M melanoma; NCI/ADR-RES ovarian; 786-0 renal; HS 578T breast; SNB-75 CNS; SK-MEL-5 melanoma; U251 CNS; MCF7 breast.
Assay in all cases: growth of human tumour cells (NCI), 48 h

Molecules are shown by their SMILES.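 Interpolation was linear, between the two tested concentrations surrounding the appropriate level; five concentrations were tested over 48 hours in 96-well plates. GI50: concentration for 50% inhibition of growth. TGI: total growth inhibition.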

On to `CN1CCN(c2cc(F)c(NC3=C(Cl)C(=O)c4ncccc4C3=O)c(F)c2)CC1`, for which the GI50 with DU-145 prostate is 1.45 µM; with SW-620 colon it was 1.46 µM; with MALME-3M melanoma it was 1.65 µM; with NCI/ADR-RES ovarian, 2400 nM; in the assay on 786-0 renal, 1.84 µM; in the assay with HS 578T breast it was 2.02 µM. Moreover, the GI50 with SNB-75 CNS was 1.37 µM; in the assay with SK-MEL-5 melanoma it was 1.66 µM; with U251 CNS it was 1.8 µM; in the assay on MCF7 breast, 1.07 µM. Further, the TGI was 2.94 µM in the assay on DU-145 prostate; 3.17 µM in the assay on SW-620 colon; 3.12 µM in the assay with MALME-3M melanoma; 6.53 µM in the assay on NCI/ADR-RES ovarian; 3.8 µM in the assay on 786-0 renal; 5.67 µM in the assay on HS 578T breast. For the same compound, the TGI with SNB-75 CNS is 5.61 µM; in the assay on SK-MEL-5 melanoma it was 3.13 µM; in the assay with U251 CNS, 3.44 µM; in the assay on MCF7 breast it was 2.87 µM.

Turning to `N#Cc1cnc2ccc(NCc3cnc[nH]3)cc2c1Nc1ccc(F)c(Cl)c1`, the GI50 is 2.27 µM in the assay on DU-145 prostate; 8.69 µM in the assay with SW-620 colon; 11.9 µM in the assay on MALME-3M melanoma; over 100000 nM with NCI/ADR-RES ovarian; 9.21 µM in the assay with 786-0 renal; 4.79 µM in the assay with HS 578T breast. Further, the GI50 was 11.1 µM with SNB-75 CNS, 19 µM in the assay on SK-MEL-5 melanoma, 8.96 µM with U251 CNS and 20.1 µM in the assay on MCF7 breast. The TGI in the assay on DU-145 prostate is over 100 µM; in the assay on SW-620 colon, over 100 µM; with MALME-3M melanoma, 36.1 µM; with NCI/ADR-RES ovarian, over 100 µM; in the assay with 786-0 renal, over 100 µM; in the assay on HS 578T breast it was over 100 µM. The TGI in the assay on SNB-75 CNS is 95.8 µM; in the assay with SK-MEL-5 melanoma, over 100 µM; in the assay on U251 CNS, over 100 µM; in the assay on MCF7 breast, over 100 µM.

For `COCCn1c(Nc2ccc(C(=O)NO)cc2)nc2ccccc21`, the GI50 in the assay on DU-145 prostate was 2.91 µM; in the assay on SW-620 colon, 2.34 µM; with MALME-3M melanoma, 2.07 µM; in the assay with NCI/ADR-RES ovarian it was 1300 nM; in the assay on 786-0 renal, 10.5 µM; in the assay with HS 578T breast it was 3.43 µM. Besides, the GI50 with SNB-75 CNS is 2.62 µM; with SK-MEL-5 melanoma, 3.55 µM; with U251 CNS, 3.99 µM; in the assay on MCF7 breast it was 5.45 µM. The TGI came out at 14.7 µM in the assay on DU-145 prostate; 7.14 µM in the assay on SW-620 colon; 9.02 µM with MALME-3M melanoma; 4.84 µM in the assay on NCI/ADR-RES ovarian; 23.5 µM in the assay on 786-0 renal; 34.3 µM in the assay with HS 578T breast. Also, the TGI is 19.1 µM with SNB-75 CNS, 12.9 µM in the assay on SK-MEL-5 melanoma, 18.6 µM in the assay on U251 CNS and over 100 µM in the assay on MCF7 breast.

Take `N#Cc1nc2cc(Cl)c(Cl)cc2nc1-c1ccc(Cl)cc1`: the GI50 in the assay with DU-145 prostate was 49.6 µM; in the assay on SW-620 colon, over 100 µM; in the assay on MALME-3M melanoma it was over 42.2 µM; with NCI/ADR-RES ovarian it was over 42200 nM; in the assay with 786-0 renal it was 16.8 µM; in the assay with HS 578T breast it was 17.1 µM. The GI50 in the assay on SNB-75 CNS was 19.9 µM; in the assay on SK-MEL-5 melanoma, 44.3 µM; with U251 CNS, 19.3 µM; in the assay with MCF7 breast, 37.3 µM. Besides, the TGI with DU-145 prostate is over 100 µM; in the assay on SW-620 colon, over 100 µM; with MALME-3M melanoma it was over 100 µM; in the assay on NCI/ADR-RES ovarian, over 83.4 µM; in the assay on 786-0 renal, 34.8 µM; with HS 578T breast, 70.2 µM. Also, the TGI in the assay on SNB-75 CNS is 40.2 µM; in the assay with SK-MEL-5 melanoma, over 100 µM; in the assay on U251 CNS it was 39.3 µM; in the assay with MCF7 breast it was over 100 µM.

Regarding `CCCCCOC(=O)c1c(C)[nH]c(/C=C2\N=C(c3ccc[nH]3)C=C2OC)c1C`, the GI50 in the assay on DU-145 prostate was 0.0371 µM; with SW-620 colon it was 0.0308 µM; in the assay on MALME-3M melanoma, 0.32 µM; in the assay on NCI/ADR-RES ovarian it was 39.1 nM; in the assay with 786-0 renal, 0.0468 µM; in the assay on HS 578T breast it was 0.0211 µM. The GI50 is 0.0429 µM with SNB-75 CNS, 0.0234 µM in the assay with SK-MEL-5 melanoma, 0.0219 µM with U251 CNS and 0.0451 µM in the assay with MCF7 breast. Further, the TGI in the assay with DU-145 prostate turned out to be 1.68 µM; with SW-620 colon it was 1.28 µM; in the assay on MALME-3M melanoma, 1.97 µM; in the assay on NCI/ADR-RES ovarian, 1.33 µM; in the assay with 786-0 renal, 0.397 µM; in the assay with HS 578T breast, 0.172 µM. Also, the TGI amounted to 0.619 µM in the assay with SNB-75 CNS, 0.0726 µM with SK-MEL-5 melanoma, 0.461 µM in the assay on U251 CNS and 1.14 µM with MCF7 breast.

Consider `CCN(Cc1ccccc1)c1ccc(/C=C2\COc3ccccc3C2=O)cc1`, for which the GI50 was over 1000 µM in the assay with DU-145 prostate; 146 µM in the assay on SW-620 colon; over 1000 µM in the assay on MALME-3M melanoma; 351000 nM with NCI/ADR-RES ovarian; over 1000 µM in the assay on 786-0 renal; over 1000 µM in the assay on HS 578T breast. For the same compound, the GI50 in the assay with SNB-75 CNS was over 1000 µM; with SK-MEL-5 melanoma it was 398 µM; in the assay on U251 CNS it was over 1000 µM; with MCF7 breast, 69.4 µM. Also, the TGI in the assay on DU-145 prostate, in the assay on SW-620 colon, in the assay on MALME-3M melanoma, in the assay on NCI/ADR-RES ovarian, in the assay with 786-0 renal and in the assay with HS 578T breast was over 1000 µM each time. Moreover, the TGI with SNB-75 CNS, in the assay with SK-MEL-5 melanoma, in the assay with U251 CNS and in the assay on MCF7 breast was over 1000 µM in each case.

In the case of `Cc1ccc(NC(=O)c2ccoc2)cc1-c1ccc(C(=O)NCC2CC2)cc1`, the GI50 is over 25 µM with DU-145 prostate; over 25 µM in the assay on SW-620 colon; over 12.9 µM with MALME-3M melanoma; over 18800 nM in the assay on NCI/ADR-RES ovarian; over 25 µM in the assay on 786-0 renal; over 19.3 µM in the assay on HS 578T breast. Also, the GI50 in the assay on SNB-75 CNS is over 25 µM; with SK-MEL-5 melanoma, 7.75 µM; in the assay with U251 CNS, over 25 µM; in the assay on MCF7 breast, over 16.1 µM. The TGI in the assay on DU-145 prostate, in the assay on SW-620 colon, in the assay on MALME-3M melanoma, with NCI/ADR-RES ovarian, in the assay with 786-0 renal and in the assay with HS 578T breast was over 25 µM in each case. For the same compound, the TGI in the assay on SNB-75 CNS, in the assay on SK-MEL-5 melanoma, in the assay on U251 CNS and with MCF7 breast was over 25 µM throughout.
